According to US7405235B2, “Transcription factor modulating compounds and methods of use thereof” (Paratek Pharmaceuticals, Inc., priority 2001, dated 2008):

biological target: MarA (Escherichia coli, UniProt P0ACH5); test: MarA-activated selective marker (ccdB) cell survival assay, Example 2; assay type: cell-based; design: key: * indicates good inhibition of MarA; ** indicates very good inhibition of MarA; conditions: inhibition of MarA: cell survival under conditions of MarA expression (ccdB under MarA-activated promoter)
Sequence (P0ACH5 whole entry, looked up): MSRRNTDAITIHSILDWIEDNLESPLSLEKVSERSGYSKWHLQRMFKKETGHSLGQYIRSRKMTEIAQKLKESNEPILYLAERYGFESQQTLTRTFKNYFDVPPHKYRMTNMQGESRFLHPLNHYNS
From the text: In the absence of Mar A, the expression of the selective marker would be silent. For example, in the case of regulation of the cytotoxic gene ccdB, the gene would be silent and the cells would survive. Synthesis of MarA from an inducible plasmid in a suitable host would result in the activation of the MarA responsive activatable promoter and expression of the selective marker. In the case of ccdB, the gene would be expressed and result in cell death. Compounds that inhibit MarA would be identified as those that permit cell survival under conditions of MarA expression.
In the absence of MarA, the expression of the selective marker is silent and cells survive. Synthesis of MarA from an inducible plasmid in a bacterial or yeast cell leads to the activation of the inaA promoter, expression of ccdB, and subsequently results in cell death. Compounds that inhibit MarA are those that permit cell survival under conditions of MarA expression. In Table 4, * indicates good inhibition of MarA and ** indicates very good inhibition of MarA.

SMILES | MarA inhibition class
CSc1nnc2c(n1)OC(c1ccc(I)o1)Nc1ccccc1-2 (stereo not drawn) [A, 6-(5-Iodo-furan-2-yl)-3-methylsulfanyl-6,7-dihydro-5-oxa-1,2,4,7-tetraaza-dibenzo[a,c]cycloheptene] | **
N#Cc1c(-c2ccc3c(c2)OCO3)c(C#N)c2nc3ccccc3n2c1N [AB, 1-Amino-3-benzo[1,3]dioxol-5-yl-benzo[4,5]imidazo[1,2-a]pyridine-2,4-dicarbonitrile] | **
COC(=O)c1ccccc1NC(=O)CSc1nnc(-c2ccco2)n1-c1ccccc1 [AC, 2-[2-(5-Furan-2-yl-4-phenyl-4H-[1,2,4]triazol-3-ylsulfanyl)-acetylamino]-benzoic acid methyl ester] | *
Cc1cc2nc3s/c(=C/c4c[nH]nc4-c4ccccc4)c(=O)n3c2cc1C [AD, 6,7-Dimethyl-2-(3-phenyl-1H-pyrazol-4-ylmethylene)-benzo[4,5]imidazo[2,1-b]thiazol-3-one] | *
CSc1cccc(NC(=O)CSc2nnc(-c3ccc4nonc4c3)n2C)c1 [AE, 2-(5-Benzo[1,2,5]oxadiazol-5-yl-4-methyl-4H-[1,2,4]triazol-3-ylsulfanyl)-N-(3-methylsulfanyl-phenyl)-acetamide] | *
O=C1C(=C2NC(c3ccccn3)C3C(=O)N(c4ccccc4)C(=O)C23)C(=O)c2ccccc21 (stereo not drawn) [AF, 4-(1,3-Dioxo-indan-2-ylidene)-2-phenyl-6-pyridin-2-yl-tetrahydro-pyrrolo[3,4-c]pyrrole-1,3-dione] | **
O=[N+]([O-])c1ccc2nc(-c3ccccc3)n(OCc3cccc(C(F)(F)F)c3)c2c1 [AG, 6-Nitro-2-phenyl-1-(3-trifluoromethyl-benzyloxy)-1H-benzoimidazole] | **
O=C(O)COn1c(-c2ccccc2)nc2ccc([N+](=O)[O-])cc21 [AH, (6-Nitro-2-phenyl-benzoimidazol-1-yloxy)-acetic acid] | **
O=[N+]([O-])c1ccc2nc(-c3ccccc3)n(OCc3ccccc3)c2c1 [AI, 1-Benzyloxy-6-nitro-2-phenyl-1H-benzoimidazole] | **
Cc1ccc(COn2c(-c3ccccc3)nc3ccc([N+](=O)[O-])cc32)cc1 [AJ, 1-(4-Methyl-benzyloxy)-6-nitro-2-phenyl-1H-benzoimidazole] | *
Cn1c(=O)c2c3oc(-c4ccc([N+](=O)[O-])cc4)nc3c(=O)n(-c3ccccc3)c2n(C)c1=O [AK, 6,8-Dimethyl-2-(4-nitro-phenyl)-5-phenyl-5H,6H-1-oxa-3,5,6,8-tetraaza-cyclopenta[a]naphthalene-4,7,9-trione] | **
Cc1ccc(-c2nc3c(=O)n(-c4ccccc4)c4c(c(=O)n(C)c(=O)n4C)c3o2)cc1 [AL, 6,8-Dimethyl-5-phenyl-2-p-tolyl-5H,6H-1-oxa-3,5,6,8-tetraaza-cyclopenta[a]naphthalene-4,7,9-trione] | *
CN(C)c1ccc(-c2cc(=O)c3ccccc3o2)cc1 [AW, 2-[4-(dimethylamino)phenyl]-4H-chromen-4-one] | **
c1ccc(COn2c(-c3ccccc3)nc3ncccc32)cc1 [AX, 1-(benzyloxy)-2-phenyl-1H-imidazo[4,5-b]pyridine] | **
c1ccc(CSc2ncc(-c3nnnn3-c3ccccc3)c(-c3ccccc3)n2)cc1 [AY, 2-(benzylthio)-4-phenyl-5-(1-phenyl-1H-1,2,3,4-tetrazol-5-yl)pyrimidine] | **
O=c1cc(-c2ccccc2)oc2ccc(F)cc12 [AZ, 6-fluoro-2-phenyl-4H-chromen-4-one] | **
CCOc1ccc(C2Nc3ccccc3-c3nnc(SC)nc3O2)cc1 (stereo not drawn) [B, 6-(4-Ethoxy-phenyl)-3-methylsulfanyl-6,7-dihydro-5-oxa-1,2,4,7-tetraaza-dibenzo[a,c]cycloheptene] | *
COc1ccc2c(=O)cc(-c3ccccc3)oc2c1 [BA, 7-methoxy-2-phenyl-4H-chromen-4-one] | *
